According to PubChem BioAssay AID504515 (Sanford-Burnham Center for Chemical Genomics, 2011):
The source made the active and inactive calls.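 Rule for the calls: active = mean IC50 below 800 nM; inactive = the rest.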

Test system: Jurkat NF-kB luciferase, PMA/ionomycin-induced, luminescence 16 h
Assay: inhibitors of PMA/ionomycin-driven NF-kB luciferase in Jurkat – cell-based, luminescence, set 2, B-cell antigen receptor NF-kB inhibitors, SAR follow-up (AID 504515)

SMILES	IC50
CCOc1ccc(-c2nc(CSCC(=O)O)c(C)o2)cc1	30 nM
CCCCc1ccc(-c2noc(CCC(=O)NCC)n2)cc1	> 800 nM (inactive)
CCCOc1ccc(-c2nc(CSCC(=O)NC3CC3)c(C)o2)cc1	> 800 nM (inactive)
CCOc1ccc(-c2nc(CSCC(N)=O)c(C)o2)cc1	> 800 nM (inactive)
CCCCOc1ccc(-c2nc(CSCC(=O)O)c(C)o2)cc1	70 nM
CC(C)c1ccc(-c2noc(CCC(=O)NC3CC3)n2)cc1	> 800 nM (inactive)
CCCOc1ccc(-c2nc(CSCC(=O)O)c(C)o2)cc1	30 nM
Cc1oc(-c2ccc(OC(F)(F)F)cc2)nc1CSCC(=O)O	290 nM

Results, then the compound that gave them:

IC50	SMILES
> 800 nM (inactive)	CCCOc1ccc(-c2nc(CSCC(=O)NCc3ccco3)c(C)o2)cc1
> 800 nM (inactive)	CCCCc1ccc(-c2noc(CCC(=O)NC)n2)cc1
> 800 nM (inactive)	C#CCNC(=O)CSCc1nc(-c2ccc(OCC)cc2)oc1C
